{"source": "patent US7579338B2", "about": "“Methods and compositions for treating atheroma, tumors and other neoplastic tissues” (Pharmacyclics, Inc., priority 1999, dated 2009)", "key": {"[1]": {"tested_on": "EMT-6 mouse mammary sarcoma cells", "test": "Proliferation of EMT-6 cells with NADPH and texaphyrin (MTT)", "assay_type": "cell-based", "conditions": "for inhibitory effect of texaphyrin with 1000 μM and 333 μM NADPH: NADPH 1000 μM and 333 μM; for inhibitory effect of texaphyrin at lower concentrations of NADPH: NADPH below 333 μM; for inhibitory effect of texaphyrin in the absence of NADPH: no NADPH", "protocol": "5A. Materials and Methods. MES-SA cells were allowed to adhere to (4) 96-well microtiter plates (4000 cells per well) overnight in 160 μL RPMI medium. Stock ascorbate 3.0 mM in medium (80 μL) was serially diluted (1:3) in rows B through F (discarding the final 80 μL). Row G was used for no-ascorbate control. Stock solutions of GdTex (2 mM in 5% mannitol) diluted in medium and 5% mannitol were prepared and added to the plates to give a final volume of 200 μL in all wells. Columns 2 and 3 contained 100 μM GdTex; columns 4 and 5 contained 75 μM GdTex, columns 6 and 7 contained 50 μM GdTex; columns 8 and 9 contained 25 μM GdTex; and columns 10 and 11 contained no GdTex (all concentrations final). Final mannitol concentration was 0.25% in all wells. The plates were incubated at 37 C under a 5% CO2/95% air atmosphere. Complex-containing medium was exchanged for fresh medium after 5 hours, and plates were incubated an additional 72 hours prior to analysis for viability using the tetrazolium dye, MTT (Mosmann, T. J. Immunol. Methods 1983, 65, 55-63). In brief, 20 μL MTT dye (Sigma Chemical, St. Louis, Mo., catalogue no. M 2128, 5 mg/mL solution in phosphate buffered saline) was added to cells in media to give a final volume of 200 μL. The plates were incubated at 37° C. for ca. 2 hours, whereupon the media was removed and isopropyl alcohol (100 μL/well) was added. Plates were vortexed for ca. 3 minutes to dissolve MTT formazan, then read on a microplate reader at 560-650 nm. Plate absorbances were normalized to wells containing neither ascorbate nor GdTex to allow plate to plate comparison. Data for each concentration of GdTex and ascorbate is the average of eight wells.\n(§1) The proliferation of EMT-6 mouse mammary sarcoma (Rockwell, S. C., et al., J. Natl. Cancer Inst. 1972, 49, 735-749) cells grown in RPMI-1640 medium in the presence of NADPH and motexafin lutetium was used to assess the production of hydrogen peroxide under cell culture conditions following the protocol outlined in the previous example.\nas §1, with “GdTex” for “motexafin lutetium”"}, "[2]": {"test": "Oxidation of ascorbate under approximate physiologic conditions (UV-vis, 266 nm)", "assay_type": "biochemical", "protocol": "• Stock ascorbic acid (Sigma A 5960) (prepared fresh): 8.82 mg/(25 mL 176.1 mg/mmol)=2.00 mM • Stock GdTex: 5.72 mg/(10.0 mL water. 1148 mg/mmol)=498 μM • Stock 4× Buffer: 200 mM HEPES, pH 7.5; 400 mM NaCl The stock solutions were prepared using ACS grade water (Aldrich 32,007-2). 4× buffer was prepared using NaCl 99.999% (Aldrich 20,443-9), HEPES (Gibco-BRL 11344-025), and sodium hydroxide 99.99% (Aldrich 30,657-6), and was treated with Chelex® 100 (BioRad 143-2832) prior to use to remove trace iron contaminants. These were combined to form the reaction mixture analyzed by UV-vis spectroscopy: 400 μL 4× Buffer, 200 μL Ascorbic Acid Stock, 979.9 μL Water, 20.1 μL GdTex Stock.\nIn brief, a reaction mixture was prepared containing ascorbate, buffer, and water. A lesser amount of texaphyrin catalyst, eg., 0.025 molar equivalent, was added to this reaction mixture, vortexed briefly, and placed in a quartz cuvette (0.2, 0.5, 1.0, 2.0, 5.0, or 10 mm path length as needed to give ca. 1.8 absorbance reading at 266 nm). The cuvette was placed in a UV-vis spectrophotometer and the absorbance was read every 60 seconds for ten minutes. The absorbance at 266 nm plotted against time initially gaive a straight line. The slope of initial time points (eg., plotting as M concentration vs time in minutes) provided a rate which was used as a point in a saturation (Michaelis-Menton) plot. This process was repeated at various concentrations of ascorbate. A background rate of ascorbate oxidation was also measured at each concentration of ascorbate using this procedure without GdTex catalyst. The resulting background rate of oxidation was subtracted from the rate of oxidation in the presence of catalyst.\n2B. […] 2C. […] 2D. By following the procedure of Example 2A, using an initial ascorbate concentration of 1.23 mM and a texaphyrin concentration of 61.5 μM, the results summarized in below in Table 1 were obtained."}, "[3]": {"tested_on": "MES-SA cells", "test": "Response of MES-SA cells to ionizing radiation, microtiter plate format (MTT)", "assay_type": "cell-based, human", "protocol": "The response of MES-SA cells to ionizing radiation was studied using the microtiter plate format to confirm radiation sensitization potential. This assay is used to assess rapidly the effects of irradiation under a variety of conditions.\n10A. Materials and Methods. MES-SA cells were incubated at 37° C. and allowed to adhere to 96-well microtiter plates (1000 cells per well) overnight in 160 μL McCoys 5A containing 10% FBS (Gibco-BRL) and ca. 2% penicillin/streptomycin solution (Sigma). BSO or media (20 μL) was added, respectively to test and control wells, 24 h prior to irradiation. Metallotexaphyrin complex (up to 100 μM) was added to the test wells to give a final volume of 200 μL, 18-24 h prior to irradiation. Plates were irradiated using a 137Cs irradiator (Model 40 Gammacell, J. L. Shepherd & Assoc., San Fernando, Calif.) at a dose rate of 33.25 Rad/min. A lead brick (2″ diameter) was positioned to protect a column of wells (no. 11) from ionizing radiation. Plate absorbances were normalized to shielded wells to allow plate-to-plate comparison. […] Reversing the position of texaphyrin complex-containing wells had no effect on assay outcome. Medium was exchanged immediately after irradiation, and plates were incubated an additional 120 h prior to analysis for viability using the MTT assay (as described, e.g., in Example 5)."}}, "data": [{"smiles": "CC(=O)[O-].CC(=O)[O-].CCc1c(CC)c2cc3nc(cnc4cc(OCCOCCOCCOC)c(OCCOCCOCCOC)cc4ncc4nc(cc1[n-]2)C(CCCO)=C4C)C(C)=C3CCCO.O.[Lu+3]", "note": "[LuTex, motexafin lutetium]", "values": [{"measurement": "inhibitory effect of texaphyrin with 1000 μM and 333 μM NADPH", "setting": "[1]", "value": "dose-response was observed"}, {"measurement": "inhibitory effect of texaphyrin at lower concentrations of NADPH", "setting": "[1]", "value": "No inhibitory effect"}, {"measurement": "inhibitory effect of texaphyrin in the absence of NADPH", "setting": "[1]", "value": "no inhibitory effect"}, {"measurement": "ascorbate oxidation (in words)", "setting": "[2]; procedure of Example 2A, compared with motexafin gadolinium", "value": "to a lesser extent than in the presence of motexafin gadolinium"}, {"measurement": "radiation sensitization, texaphyrin substituted for GdTex", "setting": "[3]; corresponding experiments, Example 10B", "value": "sensitization was not obtained"}]}, {"smiles": "CC(=O)[O-].CC(=O)[O-].CCc1c(CC)c2cc3nc(cnc4cc(OCCOCCOCCOC)c(OCCOCCOCCOC)cc4ncc4nc(cc1[n-]2)C(CCCO)=C4C)C(C)=C3CCCO.O.[Gd+3]", "note": "[GdTex, motexafin gadolinium]", "values": [{"measurement": "inhibitory effect of texaphyrin with 1000 μM and 333 μM NADPH", "setting": "[1]", "value": "dose-response was observed"}, {"measurement": "inhibitory effect of texaphyrin at lower concentrations of NADPH", "setting": "[1]", "value": "No inhibitory effect"}, {"measurement": "inhibitory effect of texaphyrin in the absence of NADPH", "setting": "[1]", "value": "no inhibitory effect"}, {"measurement": "kcat (first-order rate constant for the catalyst), ascorbate oxidation", "setting": "[2]; substrate ascorbate, pH 7.5, background subtracted", "value": 0.00583, "unit": "s⁻¹"}, {"measurement": "Km", "setting": "[2]; substrate ascorbate, pH 7.5, background subtracted, read-out: KM (dissociation or Michaelis constant), ascorbate oxidation", "value": 1060, "unit": "µM"}, {"measurement": "radiation sensitization", "setting": "[3]; 100 μM GdTex, no BSO (FIG. 17A)", "value": "Radiation sensitization became more significant"}, {"measurement": "effect on apparent viability after irradiation with BSO", "setting": "[3]; all cells pre-incubated with 100 μM BSO (FIG. 17B)", "value": "greater GdTex-dependent decrease in apparent viability"}, {"measurement": "effect on apparent viability after irradiation", "setting": "[3]; up to 50 μM GdTex for 24 h prior to irradiation, no BSO, adjusted for GdTex alone (FIG. 17A)", "value": "small effect on apparent viability"}]}]}
